# Experimental data taken from patent US12263156B2, “Use of small molecule inhibitors of the BfrB:Bfd interaction in biofilms” (priority 2020, dated 2025).
# Columns and labels:
# Format in all cases: cell-based, Pseudomonas aeruginosa
# [1] = test system: EYFP-expressing P. aeruginosa PAO1 biofilms; assay: Flow cell biofilm assay (CLSM imaging, COMSTAT biomass); settings: 3-day old biofilms, 24 h; KM-5-25 40 and 80 μM, KM-5-66 15, 30 and 50 μM
# Procedure: ACS Infect. Dis. […] The experimental shear stress was 0.14-dyn/cm^2 (shear rate=14 s^−1, pressure=7.1 mbar, flow rate=0.4 mL/min) and the switch time was set to 540 s. […] During biofilm growth and challenge with antibacterial, the culture medium in the reservoirs was removed every 12 hours and replaced with fresh pre-warmed medium. […] The biofilms were imaged with the aid of a Leica TCS SP8 confocal microscope (Leica Microsystems, Germany) using a HC PL apo CS2 63×/1.4 oil objective. […] Image stacks were acquired with a z-step size of 0.3 μm at randomly chosen positions. The Leica Application Suite X (LAS-X) software was used for image stack processing.^54 Quantitative analysis of biofilm biomass was performed using the COMSTAT computer program^54 and the Otsu method of automatic thresholding.^85
# The treated biofilms were counterstained with the cell impermeable fluorescent nucleic acid dye Sytox Red and then imaged with the aid of confocal laser scanning microscopy (CLSM).
# [2] = test system: P. aeruginosa clinical isolate PA_1076058; settings: 2-day old pellicles, 24 h, 1.2× the IC50 (KM-5-25 80 μM; KM-5-66 50 μM)
# Procedure: (§1) Pellicle biofilms were grown as described above.
# (§2) To investigate whether the compounds are also active against other strains of P. aeruginosa, pellicles of several clinical isolates from JMI Laboratories were cultured. […] To gain a broader understanding of the potential activity spectrum of the BfrB-Bfd inhibitors against P. aeruginosa strains, BLASTp^62 was used to find homologs of BfrB and Bfd sequences in the >4,400 P. aeruginosa genomes in the Pseudomonas Genome Database.^63 The results reveal two important facts: (i) The bfrB and bfd genes are adjacent to one another in all the P. aeruginosa strains, (ii) There is an extremely high level of conservation among the bfd and bfrB sequences. These findings evidence that the compounds of the present technology are broadly active against P. aeruginosa.
# [3] = test system: P. aeruginosa clinical isolate PA_1081725; settings: 2-day old pellicles, 24 h, 1.2× the IC50 (KM-5-25 80 μM; KM-5-66 50 μM)
# Procedure: as §1, §2
# P. aeruginosa PAO1 = assay: Half maximal inhibitory concentration (IC50) of planktonic growth, CFU/mL enumeration; settings: for IC50: Pseudomonas aeruginosa, PAO1, planktonic growth, 24 h, 35° C, defined media, 2% DMSO, average ± SD of three experiments
# Procedure: Chemicals were purchased from Fisher Scientific (Waltham, MA) unless otherwise stated. P. aeruginosa PAO1 was obtained from the University of Washington Genome center.^80 The PAO1 strain expressing enhanced yellow fluorescent protein (EYFP) was prepared as described in Soldano, A.; Yao, H.; Chandler, J. R.; Rivera, M. (2020) Inhibiting Iron Mobilization from Bacterioferritin in Pseudomonas aeruginosa Impairs Biofilm Formation Irrespective of Environmental Iron Availability. ACS Infect. Dis. 6, 447-458. 10.1021/acsinfecdis.9b00398.^26 Clinical isolates of P. aeruginosa were purchased from JMI Laboratories (North Liberty, IA, USA). […] Starter cultures of P. aeruginosa PAO1 in 5 mL LB media were grown for 13 hours in 50 mL conical tubes at 37° C. and 220 rpm. For biofilm experiments, a EYFP-expressing P. aeruginosa strain was routinely grown in Pseudomonas Isolation (PI) media (20 g L^−1 peptone, 0.3 g L^−1 MgCl2·6H O, 10 g L^−1 K2SO4, 25 mg L^−1 irgasan, and 20 mL L^−1 glycerol, pH 7.0). Starter cultures were grown from a single colony at 37° C. and shaking at 220 rpm for 14 hours in 5 mL PI media supplemented with 10 μM Fe. Pellicle biofilms were cultured for 48 hours at 30° C. in PI media supplemented with 20 μM Fe. Surface-attached biofilms were cultured in AB minimal media^81 supplemented with trace metals [0.15 μM (NH4)2MoO4, 3 μM CuSO4, 2 μM Co(NO3)2, 9.4 μM Na2B4O7, and 7.6 μM ZnSO4], 3 mM glucose and 15 μM Fe. Iron supplementation was carried out by addition of a small volume of filter-sterilized 10 mM (NH4)2Fe(SO4)2 (pH˜2.0) solution. […]; IC50 values (Table 1 below) were determined as reported previously^25 with small modifications. In brief: precultures of P. aeruginosa PAO1 (5 mL) were grown in LB media for 13 hours at 37° C. and 220 rpm in 50 mL conical tubes (VWR International, PA). The cells were centrifuged for 5 min at 4,000 rpm and 4° C., washed two times and then diluted in buffer (100 mM KH2PO4 and 15 mM (NH4)2SO4 to an optical density at 600 nm (OD600) of 0.1. A small volume of compound stock solution (10 mM) was transferred to a microcentrifuge tube, initially diluted with DMSO to 20 μL, and then diluted to 1 mL with preculture cell suspension in defined media with OD600=0.0001, so the final DMSO concentration is 2%. The resultant cell suspension (200 μL) was transferred to a clear-bottom polystyrene 96-well plate (VWR International, PA) covered with a lid and incubated at 35° C. and 205 cpm for 24 h in a Synergy H1 microplate reader (Biotek Instruments Inc., Winooski, VT). The cell cultures were serially diluted and then plated on PI Agar (PIA; BD Biosciences, San Jose, CA) plates for enumeration of viable cells (CFU/mL). The % growth was calculated from the ratio CFU/mL(treated)/CFU/mL(untreated control). To calculate the IC50 values, the % growth was plotted as a function of compound concentration, expressed as log[compound] (μM), and fitted to the 4-parameter logistic model describing the sigmoid-shaped response pattern (equation 1),^83 where b is the slope factor, max is the upper asymptote (plateau), and min is the lower asymptote. Values are the average and standard deviation from three independent experiments.
Structure (SMILES),killing of flow cell biofilm cells (CLSM images) [1],reduction of viable cells [2],reduction of viable cells [3],IC50 (P. aeruginosa PAO1) [µM],fold lower IC50 relative to JAG-5-7 (P. aeruginosa PAO1; relative to JAG-5-7) [fold],fold decrease of IC50 relative to compound 16 (P. aeruginosa PAO1; relative to compound 16) [fold]
O=C1NC(=O)c2c(NCc3cc(Cl)ccc3O)cccc21 [KM-5-25],concentration dependent manner,approximately 80%,approximately 80%,69 ± 7,~2,
O=C1NC(=O)c2c(NCCCc3cc(O)cc(Cl)c3)cccc21 [KM-5-66],concentration dependent manner,approximately 80%,approximately 80%,42 ± 6,,~3
